Experiments:
Format in all cases: cell-based
[1] = test system: human HTT mRNA, SNP rs362331 T allele, GM09197 fibroblasts; experiment: Screening of HD molecules in GM09197 fibroblasts, allele-specific HTT mRNA by RT-PCR, T allele; conditions: for Gm09197 Emin 48 hr T Allele (%): Emin = lowest % HTT observed within compound concentration 0.5 nM to 1000 nM; for IC50: Homo sapiens, Fibroblast, 48-hour incubation, T allele HTT mRNA normalized to GAPDH, relative to vehicle
Experimental: (§1) Molecular Biology Toolkit: • qPCR primer probe sets: • RNA input normalization was assessed utilizing human glyceraldehyde 3-phosphate dehydrogenase (hGAPDH) TaqMan assay (ThermoFisher cat #4351370) or Human Cyclophillin ([…]) TaqMan assay (ThermoFisher cat #4351372) • Total HTT detection was assessed utilizing human Htt TaqMan assay (ThermoFisher cat #4331182) • Allele-specific detection of human HTT expression in HD cells containing the SNP rs362331C/T (Exon 50): for each assay, allele-specific probes to detect the SNP variant contained locked nucleic acid bases to improve allele discrimination, as compared to unmodified DNA probes.
(§2) • qPCR was performed using Agpath ID one-step reverse transcriptase polymerase chain reaction (RT-PCR) reagent
(§3) Screening of HD molecules methods: GM09197 and/or GM04022 fibroblasts were cultured in T175 flasks incubated at 37° C. and 5% CO2. Once confluency was reached, the media was removed, the cells were washed with 1×PBS, and cells were dissociated using TrypLE™ Express Enzyme. Media was added to the enzyme and collected into a 15-mL conical tube and centrifuged at 500×g for 5 minutes to pellet the cells. Media and enzyme were aspirated using a serological pipette. Cells were resuspended in fresh media and counted using a Countess 3 Automated Cell Counter. Cells were plated at a density of 15,000 cells/well in a tissue culture-treated polystyrene 96-well dish and incubated at 37° C. and 5% CO2 overnight. The next day, media was removed using an 8-channel aspirator. 200 μL media/well are added back into the plate. The molecules are formulated to 1 mM and are dispensed using a Multidrop™ Pico 8 Digital Dispenser. After a 48-hour incubation with compounds, media was removed from plates, cells were washed with 1×PBS, and cells were lysed in 40 μL per well guanidinium thiocyanate buffer. RNA was isolated and purified in […] glass fiber column plates using chaotropic salts. Human mtHTT, wtHTT, and GAPDH mRNA were measured via RT-PCR using the ThermoFisher QuantStudio™ 7 Flex System in 384-well format. Results of HTT levels were normalized to GAPDH mRNA levels. Normalized HTT mRNA levels were expressed relative to vehicle-treated samples to assess fold change after molecule treatment.
(§4) Emin for each compound is the lowest % HTT concentration observed within a compound concentration of 0.5 nM to 1000 nM.

[2] = test system: human HTT mRNA, SNP rs362331 C allele, GM04022 fibroblasts; experiment: Screening of HD molecules in GM04022 fibroblasts, allele-specific HTT mRNA by RT-PCR, C allele; conditions: Emin = lowest % HTT observed within compound concentration 0.5 nM to 1000 nM
Experimental: as §1, §2
as §3, with “Results of HTT levels were normalized to GAPDH mRNA levels. Normalized HTT mRNA levels were expressed relative to vehicle-treated samples to assess fold change after molecule treatment.” left out

[3] = test system: human HTT mRNA, SNP rs362331 T allele, GM04022 fibroblasts; experiment: Screening of HD molecules in GM04022 fibroblasts, allele-specific HTT mRNA by RT-PCR, T allele; conditions: for GM04022 Emin 48 hr T Allele: Emin = lowest % HTT observed within compound concentration 0.5 nM to 1000 nM; for IC50: Homo sapiens, Fibroblast, 48-hour incubation, T allele HTT mRNA normalized to GAPDH, relative to vehicle
Experimental: as §1, §2, §3, §4

[4] = test system: human HTT mRNA, SNP rs362331 C allele, GM09197 fibroblasts; experiment: Screening of HD molecules in GM09197 fibroblasts, allele-specific HTT mRNA by RT-PCR, C allele; conditions: 48 hr, C allele, Emin = lowest % HTT observed within compound concentration 0.5 nM to 1000 nM
Experimental: as §1, §2, §3, §4

Structure (SMILES)	Gm09197 Emin 48 hr T Allele (%) [1]	GM 04022Emin 48 hr C Allele [2]	GM04022 Emin 48 hr T Allele [3]	GM 09197 E min 48 Hr C Allele (%) [4]	IC50 [1]	IC50 [3]
Cn1cc(NC(=O)c2nc(NC(=O)CCNC(=O)c3cc(NC(=O)c4nccn4C)cn3C)cn2C)cc1C(=O)NCCCC(=O)Nc1cn(C)c(C(=O)NCCC(=O)Nc2cc(C(=O)Nc3cn(C)c(C(=O)NCCC(=O)NCCOCCOCCOCCOCCOCCOCCOCCOCCOCCOCCOCCOCCOCCOCCOCCOc4ccc(NC(=O)c5cc6c(-c7cc(S(C)(=O)=O)ccc7Oc7ccc(F)cc7F)cn(C)c(=O)c6[nH]5)cc4)n3)n(C)c2)n1 [Compound A-2]	C (C<80%)	A (A>90%)	C (C<80%)	A (A>90%)		
CCNC(=O)c1cc2c(-c3cc(S(C)(=O)=O)ccc3Oc3ccc(OCCOCCOCCOCCOCCOCCOCCOCCOCCNC(=O)CCNC(=O)c4nc(NC(=O)c5cc(NC(=O)CCNC(=O)c6nc(NC(=O)CCCNC(=O)c7cc(NC(=O)c8nc(NC(=O)CCNC(=O)c9cc(NC(=O)c%10nccn%10C)cn9C)cn8C)cn7C)cn6C)cn5C)cn4C)cc3F)cn(C)c(=O)c2[nH]1 [Compound A-3]	C (C<80%)	A (A>90%)	C (C<80%)	A (A>90%)	38.7 nM	36 nM
CCS(=O)(=O)Nc1ccc(Oc2ccc(F)cc2F)c(-c2cn(C)c(=O)c3[nH]c(C(=O)Nc4ccc(OCCOCCOCCOCCOCCOCCOCCOCCOCCNC(=O)CCNC(=O)c5nc(NC(=O)c6cc(NC(=O)CCNC(=O)c7nc(NC(=O)CCCNC(=O)c8cc(NC(=O)c9nc(NC(=O)CCNC(=O)c%10cc(NC(=O)c%11nccn%11C)cn%10C)cn9C)cn8C)cn7C)cn6C)cn5C)cc4)cc23)c1 [Compound A-5]	C (C<80%)	A (A>90%)	C (C<80%)	A (A>90%)	9.8 nM	2 nM
CCS(=O)(=O)Nc1ccc(Oc2ccc(F)cc2F)c(-c2cn(C)c(=O)c3[nH]c(C(=O)Nc4ccc(OCCOCCOCCOCCOCCOCCOCCOCCOCCOCCOCCOCCOCCOCCOCCOCCNC(=O)CCNC(=O)c5nc(NC(=O)c6cc(NC(=O)CCNC(=O)c7nc(NC(=O)NCCNC(=O)c8cc(NC(=O)c9nc(NC(=O)CCNC(=O)c%10cc(NC(=O)c%11nccn%11C)cn%10C)cn9C)cn8C)cn7C)cn6C)cn5C)cc4)cc23)c1 [Compound A-74]	A (A>90%)			B (B is 90% to 80%)		
Cc1sc2c(c1C)C(c1ccc(Cl)cc1)=N[C@@H](CC(=O)Nc1ccc(OCCOCCOCCOCCOCCOCCOCCOCCOCCOCCOCCOCCOCCOCCOCCOCCNC(=O)CCNC(=O)c3nc(NC(=O)c4cc(NC(=O)CCNC(=O)c5nc(NC(=O)NCCNC(=O)c6cc(NC(=O)c7nc(NC(=O)CCNC(=O)c8cc(NC(=O)c9nccn9C)cn8C)cn7C)cn6C)cn5C)cn4C)cn3C)cc1)c1nnc(C)n1-2 [Compound A-75]	A (A>90%)			A (A>90%)		

Reference: patent US20240042046A1, “METHODS AND COMPOUNDS FOR MODULATING HUNTINGTON'S DISEASE” (Design Therapeutics, Inc., priority 2022, published 2024)
